Results reported in ChEMBL document CHEMBL2074057, “Active secretion of drugs from the small intestinal epithelium in rats by P-glycoprotein functioning as an absorption barrier” (J Pharm Pharmacol, 1996).

Assays:
[1] = molecular target: T1, ATP-dependent translocase ABCB1 (Homo sapiens, UniProt P08183); experiment: TP_TRANSPORTER: uptake in K562 and K562/ADR cell; assay type: functional, cell-based
[2] = molecular target: T1, ATP-dependent translocase ABCB1; experiment: TP_TRANSPORTER: transepithelial transport (basal to apical) in Caco-2 cells; assay type: functional, cell-based

T1 sequence (P08183 whole entry): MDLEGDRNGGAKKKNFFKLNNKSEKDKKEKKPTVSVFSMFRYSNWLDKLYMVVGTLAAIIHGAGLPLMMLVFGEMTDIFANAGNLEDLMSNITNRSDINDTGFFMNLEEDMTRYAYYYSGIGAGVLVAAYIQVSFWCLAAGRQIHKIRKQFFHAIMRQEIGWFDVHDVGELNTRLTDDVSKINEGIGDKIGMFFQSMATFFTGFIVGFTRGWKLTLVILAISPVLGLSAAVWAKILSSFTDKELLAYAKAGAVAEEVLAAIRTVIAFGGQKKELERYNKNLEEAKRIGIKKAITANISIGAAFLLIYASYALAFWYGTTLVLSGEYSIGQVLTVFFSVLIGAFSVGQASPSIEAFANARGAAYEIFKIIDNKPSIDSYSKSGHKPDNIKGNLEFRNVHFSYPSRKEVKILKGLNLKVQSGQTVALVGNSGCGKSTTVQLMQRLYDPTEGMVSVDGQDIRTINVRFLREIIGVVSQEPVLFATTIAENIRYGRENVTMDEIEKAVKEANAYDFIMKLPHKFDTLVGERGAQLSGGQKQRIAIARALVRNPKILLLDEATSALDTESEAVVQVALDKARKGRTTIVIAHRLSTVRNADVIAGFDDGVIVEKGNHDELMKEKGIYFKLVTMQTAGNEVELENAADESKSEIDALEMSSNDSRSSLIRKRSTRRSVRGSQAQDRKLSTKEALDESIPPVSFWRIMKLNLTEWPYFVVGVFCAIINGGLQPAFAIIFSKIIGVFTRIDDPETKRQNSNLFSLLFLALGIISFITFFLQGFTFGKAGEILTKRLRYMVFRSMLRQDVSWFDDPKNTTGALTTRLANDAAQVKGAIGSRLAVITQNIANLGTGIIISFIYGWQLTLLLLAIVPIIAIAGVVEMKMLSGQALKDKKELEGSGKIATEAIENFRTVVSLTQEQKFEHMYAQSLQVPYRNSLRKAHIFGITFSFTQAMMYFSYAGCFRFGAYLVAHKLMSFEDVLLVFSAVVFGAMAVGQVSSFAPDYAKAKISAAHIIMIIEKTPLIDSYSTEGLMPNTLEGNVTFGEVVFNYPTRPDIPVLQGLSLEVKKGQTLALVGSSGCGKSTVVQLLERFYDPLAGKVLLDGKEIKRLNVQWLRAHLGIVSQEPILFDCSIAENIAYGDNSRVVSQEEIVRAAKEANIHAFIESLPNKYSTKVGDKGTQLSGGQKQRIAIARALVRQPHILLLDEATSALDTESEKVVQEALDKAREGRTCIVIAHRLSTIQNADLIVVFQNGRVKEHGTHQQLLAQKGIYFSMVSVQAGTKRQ

Compound	Activity [1]	Activity [2]
CC(C)(C)NCC(O)COc1cccc2c1CC(O)C(O)C2 (stereo not given) [NADOLOL]	substrate [+]	
CCCC(=O)Nc1ccc(OCC(O)CNC(C)C)c(C(C)=O)c1 (stereo not given) [ACEBUTOLOL]	substrate [+]	substrate [+]
CC(C)(C)NC[C@H](O)COc1nsnc1N1CCOCC1 [TIMOLOL]	substrate [+]	
CCN(CC)C(=O)Nc1ccc(OCC(O)CNC(C)(C)C)c(C(C)=O)c1 (stereo not given) [CELIPROLOL]	substrate [+]	
